The results in this text go back to ChEMBL document CHEMBL1132097, “Fluorobenzamidrazone thrombin inhibitors: influence of fluorine on enhancing oral absorption” (Bioorg Med Chem Lett, 1999).

The target in data set [1] is T1, Prothrombin (Homo sapiens, UniProt P00734). The data set can be described thus: Inhibitory constant against human thrombin was determined in vitro.
Data set [2] can be described thus: Absorption behavior was judged by the area under the curve, determined after oral dose of 30 mg/kg in rats. The format is ADME, organism-based. On the set-up: dose 30 mg/kg, route oral. To be noted: rat, in vivo.
The nature of data set [3]: Absorption behavior was judged by the peak blood concentration determined after oral dose of 30 mg/kg in rats. The format is ADME, organism-based. On the set-up: dose 30 mg/kg, route oral. To be noted: rat.
In data set [4] the target is T2, Serine protease 1 (Bos taurus, UniProt P00760).
T2 sequence (P00760 whole entry): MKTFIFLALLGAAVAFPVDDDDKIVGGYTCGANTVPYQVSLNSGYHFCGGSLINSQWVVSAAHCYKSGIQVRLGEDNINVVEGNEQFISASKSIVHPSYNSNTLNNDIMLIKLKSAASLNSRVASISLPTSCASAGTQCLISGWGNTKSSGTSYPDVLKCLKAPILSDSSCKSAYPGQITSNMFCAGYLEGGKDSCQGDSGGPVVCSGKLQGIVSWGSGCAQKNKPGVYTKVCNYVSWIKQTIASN
The data set can be described thus: Inhibitory constant against bovine trypsin was determined in vitro.

Data set [5] addresses T1, Prothrombin. The data set can be described thus: Inhibitory constant against human thrombin was determined in vitro.
The target in data set [6] is T2, Serine protease 1. The experiment in a line: Inhibitory constant against bovine trypsin was determined in vitro.

pKi: −log10 of the molar value.

Usually pKi stands for −log10 of the Ki, conventionally taken in molar units. Lower therefore signals a high Ki. For orientation: AUC means the area under the concentration-time curve, a measure of exposure. In general, Cmax refers to the peak of the concentration-time curve. For `CCCc1ccc(S(=O)(=O)N[C@@H](Cc2ccc(C(N)=NN)cc2F)C(=O)N(C)C2CCCC2)cc1`, the results for the pKi in data set [1] and in data set [4] were 9.15 and 5.40, respectively. In data set [2], the AUC is 2.68 µM·h. This molecule also gave a Cmax in data set [3] of 1350 nM.

With `CN(C(=O)[C@H](Cc1ccc(C(=N)NN)cc1F)NS(=O)(=O)c1ccc2ccccc2c1)C1CCCC1`, the pKi is 8.70 in data set [1] and 4.96 in data set [4]. This molecule had an AUC in data set [2] of 1.83 µM·h. For the same molecule, the highest concentration (Cmax) in data set [3] came to 1630 nM.

In the case of `CN(C(=O)[C@H](Cc1ccc(C(=N)NN)cc1F)NS(=O)(=O)c1ccc2c(c1)CCCC2)C1CCCC1`, the figures for the pKi in data set [1] and in data set [4] were 9.30 and 5.52, respectively. The same molecule gave an AUC in data set [2] of 1.37 µM·h. Further, the peak level in data set [3] (Cmax) was 1030 nM.

Consider `CN(C(=O)[C@H](Cc1ccc(C(=N)NN)cc1)NS(=O)(=O)c1ccc2ccccc2c1)C1CCCC1`, for which the pKi was 9.40 in data set [1] and 4.48 in data set [4]. In data set [2], this molecule showed an AUC of 2.33 µM·h. In data set [3], this molecule gave a Cmax of 1610 nM.

On to `CN(C(=O)[C@H](Cc1ccc(C(N)=NN)c(F)c1)NS(=O)(=O)c1ccc2ccccc2c1)C1CCCC1`, for which the results for the negative-log Ki (pKi) in data set [1] and in data set [4] were 8.26 and 4.60, respectively. The AUC in data set [2] is 6.67 µM·h. In data set [3], the highest level (Cmax) was 4130 nM.

As to `COc1ccc2cc(S(=O)(=O)N[C@@H](Cc3ccc(C(N)=NN)cc3)C(=O)N(C)C3CCCC3)ccc2c1`, the pKi in data set [1] is 10.22; in data set [4], 5.04. The molecule also had an AUC in data set [2] of 2.62 µM·h. Further, the Cmax in data set [3] came to 1130 nM.

As for `CCCc1ccc(S(=O)(=O)N[C@@H](Cc2ccc(C(=N)NN)c(F)c2)C(=O)N(C)C2CCCC2)cc1`, the negative-log Ki (pKi) in data set [1] is 8.74; in data set [4], 4.66. In data set [2], this molecule showed an exposure (AUC) of 4.17 µM·h. The Cmax in data set [3] turned out to be 2780 nM.

As to `CN(C(=O)[C@H](Cc1ccc(C(N)=NN)cc1)NS(=O)(=O)c1ccc2c(c1)CCCC2)C1CCCC1`, the pKi in data set [1] was 10.00; in data set [4], 5.34. This molecule gave an AUC in data set [2] of 0.817 µM·h. Further, the Cmax in data set [3] was 360 nM.

As for `CCCc1ccc(S(=O)(=O)N[C@@H](Cc2ccc(C(N)=NN)cc2)C(=O)N(C)C2CCCC2)cc1`, the pKi was 9.70 in data set [5] and 5.46 in data set [6]. Also, in data set [2], the AUC was 2.23 µM·h. This molecule came in with a Cmax in data set [3] of 1170 nM.

For `CN(C(=O)[C@H](Cc1ccc(C(N)=NN)c(F)c1)NS(=O)(=O)c1ccc2c(c1)CCCC2)C1CCCC1`, the negative-log Ki (pKi) was 9.05 in data set [1] and 4.60 in data set [4]. In addition, the AUC in data set [2] is 1.63 µM·h. Also, the Cmax in data set [3] worked out at 1340 nM.

As for `COc1ccc2cc(S(=O)(=O)N[C@@H](Cc3ccc(C(N)=NN)cc3F)C(=O)N(C)C3CCCC3)ccc2c1`, the pKi in data set [1] is 9.70; in data set [4], 5.70. Besides, the exposure (AUC) in data set [2] is 3.28 µM·h. The molecule also displayed a Cmax in data set [3] of 2410 nM.
